Patent publication US6905016B2, “Packaging system for transdermal drug delivery systems” (Noven Pharmaceuticals, Inc., priority 2000, dated 2005)
Entries after “also recorded” stand apart in the source; their conditions may differ.

Tests used:
[1] = prescribed for morning sickness during pregnancy; cited from earlier work
beta-adrenergic = conditions: L-form versus D-enantiomer; cited from earlier work
[2] = Degradation of methylphenidate in presence of moisture or packaging materials (observation)

O=C1CCC(N2C(=O)c3ccccc3C2=O)C(=O)N1 (single isomer, unassigned) [L-enantiomer of thalidomide, thalidomide]
safety/effect of enantiomer in pregnancy [1]: potent teratogen

CC(C)NC[C@H](O)COc1cccc2ccccc12 [L-form of propranolol, propranolol]
potency relative to the D-enantiomer (beta-adrenergic): 100 times

COC(=O)C(c1ccccc1)C1CCCCN1 (centres unmarked) [methylphenidate]
stability in the presence of packaging materials ([2]; certain types of packaging materials used for transdermal systems): unstable
degradation in the presence of moisture ([2]; exposure to moisture): form ritalinic acid by hydrolysis; also recorded: formation of the erythro-enantiomers

O=C1CCC(N2C(=O)c3ccccc3C2=O)C(=O)N1 (single isomer, unassigned) [D-enantiomer of thalidomide, thalidomide]
safety/effect of enantiomer in pregnancy [1]: safe and effective sedative
